Measured values published in US20100239501A1, “GENE SENSITIVE TO BONE/JOINT DISEASE AND USE THEREOF” (RIKEN, priority 2007, published 2010).

What was measured:
[1] = system: transcriptional factor AP-1; experiment: AP-1 cis-reporter luciferase assay in PMA-stimulated E11 cells; assay type: cell-based, human; details: 0.1, 1 and 10 ng/ml PMA, 24 hours after stimulation, n=2
Excerpt: Because the EDG2 gene is an LPA receptor that is dominant in OA synovial membrane, it was decided to perform a functional analysis of OA susceptibility polymorphs using synovial cells. E11 cells are a cell line established by immortalizing fibroblast-like cells from a rheumatoid arthritis patient synovial membrane with simian SV40 large T antigen (Abe et al, J Rheumatol. 1997 March; 24(3):420-9.). In the 5′-flanking region of EDG2, where i-EDG2-09 and 12 are present, an AP-1-binding motif is present. […] The method used is described below. The E11 cells were cultured using Dulbecco's Modified Eagle's Medium (DMEM, Sigma) containing 10% fetal bovine serum (FBS), antibiotics (100 U/ml penicillin G and 100 μg/ml streptomycin) and L-glutamine ([…]). On the day before the transfection, the E11 cells were seeded to a 24-multiwell plate to obtain a cell density of 5×10^4 cells/well. The following day, using Fugene-6 (Roche diagnostics), 200 ng of the reporter construct and 4 ng of pRL-TK (Promega) as the internal standard for correction of transfection efficiency, per well were transfected. Twenty-four after the transfection, the cells were cultured on a medium containing 0.1, 1 and 10 ng/ml PMA. Twenty-four hours after the stimulation, the cells were solubilized, and luciferase activity was measured using PicaGene Dual SeaPansy System (Toyo Ink). The number of cases was n=2.

[2] = system: synovial cell line E11 cells; experiment: EDG2 gene expression in PMA-stimulated E11 cells (quantitative real-time PCR); assay type: cell-based, human; details: PMA 10 ng/ml, from 2 hours to 12 hours after addition, n=4
Protocol: To analyze the expression of the four LPA receptors examined in Example 10 in joint tissue, an expression quantitation analysis by quantitative real-time PCR was performed on articular cartilages and synovial tissues of knee OA patients. The method used was in accordance with Example 10. Total RNA was extracted from each tissue (articular cartilage n=4, synovial membrane n=3) using Isogen (Nippon Gene), and reverse transcription was performed on 500 ng of total RNA using Multiscribe reverse transcriptase (Applied biosystems) and a random hexamer, whereby a cDNA was obtained. Quantitation of the LPA receptor genes was performed using QuantiTect STBR Green PCR (Qiagen) on the ABI PRISM 7700 sequence detection system (Applied biosystems) as directed in the documentation attached. The number of copies of each gene was calculated using a working curve. The amount of each gene was standardized by being divided by the number of copies of the G3PDH gene. A Toyobo product was used as the primer for the G3PDH gene. […] The amount of the EDG2 gene expressed was higher in synovial membrane at a level about 10 times as high as in articular cartilage. […]
The method used is described below. […] In these total RNAs, the amount expressed of the EDG2 gene relative to G3PDH was measured in accordance with the method described in Example 11. […]

[3] = system: EDG2 gene transcription activity (i-EDG2-09 region); experiment: i-EDG2-09 luciferase reporter assay in PMA-stimulated E11 cells; assay type: cell-based, human; details: both constructs (G allele and A allele), 10 ng/ml PMA, 5 hours after stimulation
Excerpt: An AP-1-binding motif described in a report by Duncliffe et al. [Immunity. […] 28; 276(52):48871-8.] is present 11 to 16 by upstream. The existence of a transcriptional factor-binding motif where AP-1 and NFAT are located in tandem is known in a plurality of genes [Macian F, Lopez-Rodriguez C and Rao A., Oncogene. 2001 Apr. 30; 20(19):2476-89. Review.]. Meanwhile, in the surrounding sequence, including i-EDG2-12, no distinct transcriptional factor binding sequence was found. […] Oligonucleotides (sense strand and antisense strand) wherein 4 bp at the restriction endonuclease NheI adhesion end is added on the 5′ side of a region centering at i-EDG2-09, and comprising the AP-1 and NFAT-binding motifs (a region at −2809 to −2839 from the transcription initiation point of EDG2), and 4 bp at the XbaI adhesion end is added on the 3′ side, were prepared for both alleles of i-EDG2-09 (G or A). After these oligonucleotides were converted to double-stranded DNAs for each allele, reporter constructs wherein each allele was integrated in tandem 5 times in the NheI site of the pGL3-promoter vector (Promega), which is a luciferase reporter vector, while retaining the orientation were prepared for G allele and A allele. […] Five hours after the stimulation, the cells were solubilized, and luciferase activity was measured using the PicaGene Dual SeaPansy System (Toyo Ink). […]

[4] = molecular target: T1, EDG2 (Homo sapiens, UniProt Q92633); experiment: Intracellular Ca2+ concentration (FLIPR tetra) in McA-RH7777 cells stably expressing EDG2; assay type: cell-based; set-up: Dainippon Pharmaceutical Co., Ltd. (cells); host or cells: McA-RH7777; details: LPA 0.3 μM, Ki16425 10^−8 to 10^−5 M added previously
T1 sequence (Q92633 whole entry): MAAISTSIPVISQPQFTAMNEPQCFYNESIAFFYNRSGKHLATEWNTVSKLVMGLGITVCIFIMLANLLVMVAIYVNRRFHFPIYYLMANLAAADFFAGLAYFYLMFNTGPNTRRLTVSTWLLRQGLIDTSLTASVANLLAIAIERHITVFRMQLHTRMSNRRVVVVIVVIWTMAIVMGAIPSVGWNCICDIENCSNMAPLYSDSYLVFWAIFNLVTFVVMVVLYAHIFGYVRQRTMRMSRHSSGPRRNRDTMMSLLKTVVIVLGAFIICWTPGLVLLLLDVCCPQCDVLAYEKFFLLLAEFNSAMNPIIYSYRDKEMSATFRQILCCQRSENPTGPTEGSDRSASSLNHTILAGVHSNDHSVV
Protocol: A forcible expression vector comprising an ORF sequence of human EDG2 [hEDG2-pcDNA3.1(+)] was purchased from UMR cDNA Resource Center. This plasmid was introduced into McA-RH7777 (Dainippon Pharmaceutical Co., Ltd.) using Lipofectamine LTX (Invitrogen), and the cells were cultured in a medium containing Geneticin for 14 to 20 days to acquire cells that stably express EDG2.
Next, an evaluation was made using FLIPR tetra (Molecular Devices) to confirm that stimulation with LPA raised intracellular Ca concentrations via the EDG2 expressed. That is, these cells were seeded to a 384-well plate, 0.03 to 10 μM LPA (Sigma) was added to each well, and it was confirmed that rises in intracellular Ca^2+ concentration occurred. LPA dose-dependently.

[5] = molecular target: T1, EDG2; experiment: IL6 gene expression in LPA-stimulated HFLS-OA treated with EDG2 antagonist; assay type: cell-based; set-up: OA patient-derived fibroblast-like synovial cells (HFLS-OA) were purchased from Cell application Co; host or cells: HFLS-OA (OA patient-derived fibroblast-like synovial cells); details: Ki16425 0, 0.3, 1, 3, 10 and 33 μM for 30 minutes, then 10 μM LPA, 2 hours, n=4
Protocol: Furthermore, the involvement of EDG2 in the LPA-induced inflammatory cytokine raising reaction in human OA synovial cells was analyzed using an antagonist against EDG2. […] As the EDG2 antagonist, Ki16425 (Sigma) was used. OA patient-derived fibroblast-like synovial cells (HFLS-OA) were purchased from Cell application Co. The HFLS-OA was cultured using the attached Synoviocyte growth medium. The number of passages for the cells used was 4 or 5. The HFLS-OA was seeded to a 24-well plate at a ratio of 1×10^5 cells/well, and cultured using the attached Synoviocyte growth medium until they became confluent. Twelve hours before performing LPA stimulation, the medium was replaced with Ham's F-12 (Invitrogen) medium containing 0.1% fatty acid free bovine serum albumin (Sigma). Twelve hours after the medium replacement, the cells were treated with Ki16425 (0, 0.3, 1, 3, 10 and 33 μM) for 30 minutes. Thereafter, the cells were stimulated with 10 μM LPA; 2 hours later, total RNA was extracted using ISOGEN (Nippon Gene), and the amount expressed of the IL6 gene was quantified by a method in accordance with Example 10 (n=4).

[6] = molecular target: T2, EDG7 (Homo sapiens, UniProt Q9UBY5); details: no test described; cited from earlier work
T2 sequence (Q9UBY5 1-353): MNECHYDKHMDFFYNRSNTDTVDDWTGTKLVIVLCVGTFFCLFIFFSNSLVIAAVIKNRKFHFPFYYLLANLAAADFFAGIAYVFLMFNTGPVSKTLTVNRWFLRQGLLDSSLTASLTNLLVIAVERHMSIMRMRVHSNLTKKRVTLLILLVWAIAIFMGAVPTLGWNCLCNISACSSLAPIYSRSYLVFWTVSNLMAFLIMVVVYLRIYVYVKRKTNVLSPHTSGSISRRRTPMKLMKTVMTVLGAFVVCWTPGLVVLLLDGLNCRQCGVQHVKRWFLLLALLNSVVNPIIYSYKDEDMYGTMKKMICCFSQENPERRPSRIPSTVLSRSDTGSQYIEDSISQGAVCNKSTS

[7] = system: EDG2; experiment: EDG2 knockdown by siRNA in LPA-stimulated HFLS-OA; assay type: cell-based, human; details: n=4
Protocol: To analyze the involvement of EDG2 in the LPA-induced inflammatory cytokine raising reaction in human OA synovial cells, obtained in Example 17, an investigation using an siRNA was performed. The method used is described below. An siRNA against EDG2 was designed by utilizing an siRNA design support system available from the Takara Bio Web site (http://bio.takara.co.jp). Synthesis of the siRNA was outsourced to Takara Bio. The control siRNA used was such that the sequence of an siRNA against asporin was scrambled. OA patient-derived fibroblast-like synovial cells (HFLS-OA) were purchased from Cell application Co. The HFLS-OA was cultured using the attached Synoviocyte growth medium. The number of passages for the cells used was 4 or 5. The HFLS-OA was seeded to a 24-well plate at a ratio of 1×10^5 cells/well, and cultured using the attached Synoviocyte growth medium. The following day, the siRNA against EDG2 was introduced into the HFLS-OA to obtain a final concentration of 11 nM, using the Trans-IT-TKO transfection regent (Mirus Co.), according to the attached protocol. […] Twelve hours after the medium replacement, the cells were stimulated with 10 μM LPA; 2 hours later, total RNA was extracted using ISOGEN (Nippon Gene), and the amount of the IL6 gene expressed was quantified by a method in accordance with Example 10 (n=4).

## CCCCCCCCCCCCCC(=O)O[C@@H]1[C@@H](C)[C@@]2(O)[C@@H](C=C(CO)C[C@]3(O)C(=O)C(C)=C[C@@H]23)[C@@H]2C(C)(C)[C@]12OC(C)=O [PMA, phorbol 12-myristate 13-acetate]
[1]
  luciferase activity (AP-1 binding motif reporter): rose PMA dose-dependently
[2]
  amount expressed of the EDG2 gene relative to G3PDH: rose over time
[3]
  luciferase activity of i-EDG2-09 reporter constructs: rose significantly

## Cc1noc(-c2ccc(CSCCC(=O)O)cc2)c1NC(=O)OC(C)c1ccccc1Cl (centres unmarked) [Ki16425]
[4]
  suppression of elevation of intracellular Ca2+ concentration by LPA stimulation: suppressed dose-dependently
[5]
  suppression of the rise in the expression of the IL6 gene by LPA: dose-dependently
[6]
  antagonist activity against EDG7: antagonist activity

## siRNA against EDG2: siRNA used in EDG2 knockdown; sense GAAAUGAGCGCCACCUUUATT (SEQ ID NO 40), antisense UAAAGGUGGCGCUCAUUUCTT (SEQ ID NO 41) (chemistry not given here)
[7]; siRNA 11 nM, 10 μM LPA, 2 hours
  amount expressed of the IL6 gene, which rises in response to LPA: significantly suppressed
[7]; siRNA final concentration 11 nM
  amount of EDG2 expressed: significantly suppressed
